From patent US7794761B2, “Methods for inducing anti-anxiety and calming effects in animals and humans” (Seroctin Research & Technology, Inc., priority 2000, dated 2010)

Test system: montane vole, Microtus montanus
Assay: Uterine weight response in female montane voles after intraperitoneal injection
Assay type: in vivo
Details: i.p. 5 mcg/day for three days; for Average Uterine Weight: sacrificed 24 hours after last injection, control 15.2 ± 2.4
Description: Female montane voles, Microtis montanus, received intra peritoneal injections of representative compounds belonging to Formulas I, II and III for three consecutive days and sacrificed twenty-four (24) hours after the last injection to examine uterine weight response. To assess the properties of each representative compound, pure ones made by chemical means (University of Utah Department of Chemistry, Salt Lake City, Utah) were prepared specifically for this test. All compounds were injected at a dose level of 5 mcg/day, dissolved in five percent (5%) propylene glycol for a total injection volume of 0.5 ml. Control animals received 0.5 ml of five percent (5%) propylene glycol only. All voles were 4-5 weeks old and weighed 25-29 g.

SMILES | Average Uterine Weight | increase in uterine weight over control group
COc1ccc(N)c(O)c1 [2-amino-5-methoxyphenol] | 21.8 ± 3.5 mg | –
CCOc1ccc(NC(C)=O)c(O)c1 [2-hydroxy-4-ethoxyacetanilide] | 22.2 ± 3.9 mg | –
COc1ccc2oc(=O)[nH]c2c1 [5-methoxy-2-benzoxazolinone] | 20.0 ± 4.7 mg | 32%
COc1ccc(O)c(NC(C)=O)c1 [2-hydroxy-5-methoxyacetanilide] | 21.1 ± 4.4 mg | –
COc1ccc2[nH]c(=O)oc2c1 [6-methoxy-2-benzoxazolinone] | 27.7 ± 5.6 mg | 82%
COc1ccc(NC(C)=O)c(O)c1 [2-hydroxy-4-methoxyacetanilide] | 23.1 ± 2.7 mg | –
COc1ccc(O)c(N)c1 [2-amino-4-methoxyphenol] | 22.2 ± 3.2 mg | –
